Test results: ChEMBL document CHEMBL1144980, “Lupane triterpenes and derivatives with antiviral activity” (Bioorg Med Chem Lett, 2003)

Key:
[1] = system: Influenza A virus; assay: Antiviral activity against influenza A virus determined in chicken embryo cells (CEC) by plaque reduction assay method.; type: functional, organism-based
[2] = system: Human alphaherpesvirus 1; assay: Antiviral activity against HSV-1 determined by inhibition of viral cytopathic effect (CPE) in rhabdomyosarcoma (RD) cell line; type: functional, organism-based, herpes simplex virus; settings: Human alphaherpesvirus 1, RD
[3] = system: Human alphaherpesvirus 1; assay: Ratio of maximum nontoxic concentration (MNTC) against HSV-1 to that of effective concentration (EC50); type: functional, herpes simplex virus
[4] = system: Influenza A virus; assay: Ratio of maximum nontoxic concentration (MNTC) against Influenza virus A to that of effective concentration (EC50); type: functional

**Q.** For `C=C(C)[C@@H]1CCC2(NC(=O)N[C@@H](C(=O)OC)C(C)C)CC[C@@]3(C)C(CC[C@@H]4[C@@]5(C)CCC(=O)C(C)(C)C5CC[C@]43C)C12` (some centres not stated), which EC50 [1] is on record?
**A.** The EC50 was greater than 85.7 µM.

**Q.** And the EC50 [2]?
**A.** Its EC50 is 0.2 µM.

**Q.** What about the Ratio [3] of the same compound?
**A.** Its Ratio is 454.

**Q.** And the Ratio [4]?
**A.** The Ratio was less than 1.

**Q.** With `C=C(C)[C@@H]1CC[C@]2(C(=O)NN)CC[C@@]3(C)C(CC[C@@H]4[C@@]5(C)CCC(=O)C(C)(C)C5CC[C@]43C)C12` (some centres not stated) as the compound, how does the EC50 [2] read?
**A.** Its EC50 is 10 µM.

**Q.** And the Ratio [3]?
**A.** The Ratio was 21.3.

**Q.** With `C=C(C)[C@@H]1CC[C@]2(C(=O)NN)CC[C@@]3(C)C(CC[C@@H]4[C@@]5(C)CC/C(=N\O)C(C)(C)C5CC[C@]43C)C12` (some centres not stated) as the compound, how does the EC50 [1] read?
**A.** Its EC50 is 2 µM.

**Q.** And the EC50 [2]?
**A.** Its EC50 is greater than 51.6 µM.

**Q.** What about the Ratio [3] of the same compound?
**A.** Its Ratio is less than 1.

**Q.** And the Ratio [4]?
**A.** Its Ratio is 25.2.

**Q.** Which EC50 [1] does the source give for `C=C(C)[C@@H]1CC[C@]2(C(=O)N[C@@H](CCSC)C(=O)OC)CC[C@@]3(C)C(CC[C@@H]4[C@@]5(C)CCC(=O)C(C)(C)C5CC[C@]43C)C12` (some centres not stated) here?
**A.** Its EC50 is 14.2 µM.

**Q.** And the EC50 [2]?
**A.** Its EC50 is greater than 666 µM.

**Q.** And the Ratio [3]?
**A.** The Ratio was less than 1.

**Q.** What about the Ratio [4] of the same compound?
**A.** The Ratio was 11.9.

**Q.** With `C=C(C)[C@@H]1CC[C@]2(C(=O)N[C@@H](C)C(=O)OC)CC[C@@]3(C)C(CC[C@@H]4[C@@]5(C)CCC(=O)C(C)(C)C5CC[C@]43C)C12` (some centres not stated) as the compound, how does the EC50 [1] read?
**A.** Its EC50 is greater than 234 µM.

**Q.** What about the EC50 [2] of the same compound?
**A.** The EC50 was 663 µM.

**Q.** What about the Ratio [3] of the same compound?
**A.** The Ratio was 1.4.

**Q.** What about the Ratio [4] of the same compound?
**A.** The Ratio was less than 1.

**Q.** `C=C(C)[C@@H]1CC[C@]2(C(=O)NCCO)CC[C@@]3(C)C(CC[C@@H]4[C@@]5(C)CCC(=O)C(C)(C)C5CC[C@]43C)C12` (some centres not stated) was tested. Which EC50 [1] did it give?
**A.** Its EC50 is greater than 755 µM.

**Q.** What about the EC50 [2] of the same compound?
**A.** The EC50 was greater than 377 µM.

**Q.** And the Ratio [3]?
**A.** Its Ratio is less than 1.

**Q.** And the Ratio [4]?
**A.** Its Ratio is less than 1.

**Q.** Which EC50 [1] does the source give for `C=C(C)[C@@H]1CC[C@]2(N=C=O)CC[C@@]3(C)C(CC[C@@H]4[C@@]5(C)CCC(=O)C(C)(C)C5CC[C@]43C)C12` (some centres not stated) here?
**A.** The EC50 was greater than 221 µM.

**Q.** What about the EC50 [2] of the same compound?
**A.** The EC50 was greater than 221 µM.

**Q.** What about the Ratio [3] of the same compound?
**A.** The Ratio was less than 1.

**Q.** And the Ratio [4]?
**A.** Its Ratio is less than 1.

**Q.** For `C=C(C)[C@@H]1CCC2(NC(=O)N[C@H](CC(C)C)C(=O)OC)CC[C@@]3(C)C(CC[C@@H]4[C@@]5(C)CCC(=O)C(C)(C)C5CC[C@]43C)C12` (some centres not stated), which EC50 [1] is on record?
**A.** Its EC50 is 5 µM.

**Q.** And the EC50 [2]?
**A.** Its EC50 is 14.6 µM.

**Q.** And the Ratio [3]?
**A.** Its Ratio is 11.5.

**Q.** What about the Ratio [4] of the same compound?
**A.** The Ratio was greater than 67.

**Q.** What does the source list for `C=C(C)[C@@H]1CCC2(NC(=O)N[C@H](CCSC)C(=O)OC)CC[C@@]3(C)C(CC[C@@H]4[C@@]5(C)CC/C(=N\O)C(C)(C)C5CC[C@]43C)C12` (some centres not stated)?
**A.** EC50 [1]: 2.3 µM; EC50 [2]: 0.6 µM; Ratio [3]: 67.6; Ratio [4]: 35.2

**Q.** `C=C(C)[C@@H]1CC[C@]2(C(=O)NCCCCCCCCCCCCCCCCCC)CC[C@@]3(C)C(CC[C@@H]4[C@@]5(C)CCC(=O)C(C)(C)C5CC[C@]43C)C12` (some centres not stated) was tested. Which EC50 [1] did it give?
**A.** The EC50 was 55.5 µM.

**Q.** And the EC50 [2]?
**A.** The EC50 was 1.4 µM.

**Q.** And the Ratio [3]?
**A.** Its Ratio is 177.

**Q.** What about the Ratio [4] of the same compound?
**A.** The Ratio was 4.6.

**Q.** Which results are given for `C=C(C)[C@@H]1CC[C@]2(C(=O)N[C@@H](CC(C)C)C(=O)OC)CC[C@@]3(C)C(CC[C@@H]4[C@@]5(C)CCC(=O)C(C)(C)C5CC[C@]43C)C12` (some centres not stated)?
**A.** EC50 [1]: 72.3 µM; EC50 [2]: 1370 µM; Ratio [3]: <1; Ratio [4]: 1.2

**Q.** Which results are given for `C=C(C)[C@@H]1CC[C@]2(C(=O)N[C@H](C(=O)OC)C(C)C)CC[C@@]3(C)C(CC[C@@H]4[C@@]5(C)CCC(=O)C(C)(C)C5CC[C@]43C)C12` (some centres not stated)?
**A.** EC50 [1]: 13.3 µM; EC50 [2]: 142 µM; Ratio [3]: 2.5; Ratio [4]: 3.4

**Q.** `C=C(C)[C@@H]1CCC2(NC(=O)N[C@H](CCSC)C(=O)OC)CC[C@@]3(C)C(CC[C@@H]4[C@@]5(C)CCC(=O)C(C)(C)C5CC[C@]43C)C12` (some centres not stated) was tested. Which EC50 [1] did it give?
**A.** The EC50 was 27.1 µM.

**Q.** And the EC50 [2]?
**A.** The EC50 was 2.2 µM.

**Q.** And the Ratio [3]?
**A.** Its Ratio is 298.5.

**Q.** What about the Ratio [4] of the same compound?
**A.** The Ratio was 3.

**Q.** What does the source list for `C=C(C)[C@@H]1CC[C@]2(C(N)=O)CC[C@@]3(C)C(CC[C@@H]4[C@@]5(C)CCC(=O)C(C)(C)C5CC[C@]43C)C12` (some centres not stated)?
**A.** EC50 [1]: 0.7 µM; EC50 [2]: 220 µM; Ratio [3]: <1; Ratio [4]: 1333.3

**Q.** With `C=C(C)[C@@H]1CC[C@]2(C(=O)O)CC[C@]3(C)[C@H](CC[C@@H]4[C@@]5(C)CC[C@H](O)C(C)(C)[C@@H]5CC[C@]43C)[C@@H]12` [BETULINIC ACID] as the compound, how does the EC50 [1] read?
**A.** The EC50 was greater than 219 µM.

**Q.** And the EC50 [2]?
**A.** Its EC50 is 8.2 µM.

**Q.** And the Ratio [3]?
**A.** Its Ratio is 53.3.

**Q.** And the Ratio [4]?
**A.** The Ratio was less than 1.

**Q.** How did the EC50 [1] turn out when `C=C(C)[C@@H]1CC[C@]2(C(=O)O)CC[C@]3(C)[C@H](CC[C@@H]4[C@@]5(C)CCC(=O)C(C)(C)[C@@H]5CC[C@]43C)[C@@H]12` [BETUNOLIC ACID] was run?
**A.** The EC50 was 5.7 µM.

**Q.** And the EC50 [2]?
**A.** Its EC50 is 2.5 µM.

**Q.** What about the Ratio [3] of the same compound?
**A.** Its Ratio is 43.9.

**Q.** And the Ratio [4]?
**A.** The Ratio was 9.6.
